Values of other authors, collected in patent US8633150B2, “Methods for inducing sustained immune response” (TNI Biotech, Inc., priority 2001, dated 2014).
Like-named read-outs stand apart in the source and are kept apart here.

Key:
[1] = normal volunteers, HIV positive, and cancer patients; Plotnikoff, et al., 1997
[2] = Bihari

In the case of `CSCC[C@H](NC(=O)[C@H](Cc1ccccc1)NC(=O)CNC(=O)CNC(=O)[C@@H](N)Cc1ccc(O)cc1)C(=O)O` [met-enkephalin, methionine enkephalin], the “toxicity in clinical studies” value [1] is listed as “no major toxicity”, the half-life in plasma ([2]; et al., 1991) is listed as “approximately 2 minutes” and the half-life in plasma ([2]; et al., 1991, listed as Met-enkelphalin) is listed as “approximately two”.
